The values below come from ChEMBL document CHEMBL5329204, “Design, synthesis and biological evaluation of EGFR kinase inhibitors that spans the orthosteric and allosteric sites” (Bioorg Med Chem, 2023).

The term IC50 denotes the midpoint of a concentration-inhibition curve.

Experiment [1] can be described thus: Inhibition of EGFR L858R/T790M/C797S triple mutant in mouse BaF3 cells assessed as cell growth inhibition measured after 72 hrs by CellTiter-Glo assay. The class given is cell-based. Conditions: BaF3, 72 h. In general terms: ATP-based viability assays read luminescence as a measure of living cells.
The nature of experiment [2]: Inhibition of EGFR Del19/T790M/C797S triple mutant in mouse BaF3 cells assessed as cell growth inhibition measured after 72 hrs by CellTiter-Glo assay. The class given is cell-based. The following applies: BaF3, 72 h.
The test system of experiment [3] is NCI-H1975. Nature of the experiment: Anticancer activity against human NCI-H1975 cells assessed as cell growth inhibition measured after 72 hrs by MTT assay. The class given is functional, cell-based. Conditions: NCI-H1975, 72 h. (In general: Formazan colour is commonly taken as a measure of viable cells.)
The test system of another experiment is A549. Nature of the experiment: Anticancer activity against human A549 cells assessed as cell growth inhibition measured after 72 hrs by MTT assay. The following applies: A549, 72 h. The class given is functional, cell-based.
A short description of experiment [4]: Inhibition of EGFR L858R/T790M double mutant in mouse BaF3 cells assessed as cell growth inhibition measured after 72 hrs by CellTiter-Glo assay. The class given is cell-based. Conditions: BaF3, 72 h.
Experiment [5] relates to NCI-H1975. The experiment is described as follows: Potency index, ratio of gefitinib IC50 to test compound IC50 for anticancer activity against human NCI-H1975 cells assessed as cell growth inhibition measured after 72 hrs by MTT assay. The class given is functional.

Consider `O=C(Nc1nccs1)C(c1ccccc1)N1Cc2ccccc2C1=O` (stereo not drawn), for which the IC50 (in experiment [1]; in experiment [2]; with NCI-H1975 [3]) was over 10 µM in each case.
With `COc1cc2ncnc(Nc3ccc(NC(=O)C(c4ccccc4)N4Cc5ccccc5C4=O)cc3F)c2cc1OCCCN1CCOCC1` (stereo not drawn), the results for the IC50 (in experiment [1]; in the experiment with NCI-H1975 [3]) were 6.16 µM and 9 µM, respectively.
As to `COc1cc2ncnc(Nc3ccc(NC(=O)C(c4ccccc4)N4Cc5ccccc5C4=O)c(F)c3)c2cc1OCCCN1CCOCC1` (stereo not drawn), the IC50 in experiment [1] was found to be 5.85 µM; in the experiment on NCI-H1975 [3] it was 3.72 µM.
Regarding `COCCOc1cc2ncnc(Nc3ccc(NC(=O)C(c4ccccc4)N4Cc5ccccc5C4=O)cc3)c2cc1OCCOC` (stereo not drawn), the IC50 in experiment [1] is over 20 µM; in the experiment with A549, over 20 µM; in experiment [2], over 20 µM; with NCI-H1975 [3] it was 1.85 µM; in experiment [4], 2.69 µM.
For the compound `CNC(=O)CN1CCC(Oc2cc3c(Nc4ccc(NC(=O)C(c5ccccc5)N5Cc6ccccc6C5=O)cc4)ncnc3cc2OC)CC1` (stereo not drawn), the IC50 was over 20 µM in experiment [1]; over 20 µM in the experiment with A549; over 20 µM in experiment [2]; over 20 µM with NCI-H1975 [3]; 1.32 µM in experiment [4].
For `COc1cc2ncnc(Nc3ccc(CNC(=O)C(c4ccccc4)N4Cc5ccccc5C4=O)cc3)c2cc1OCCCN1CCOCC1` (stereo not drawn), the IC50 in experiment [1] was over 20 µM; in the experiment with NCI-H1975 [3] it was 14.4 µM.
Taken in the same sequence, the figures for `COc1cc2ncnc(NCc3cccc(NC(=O)C(c4ccccc4)N4Cc5ccccc5C4=O)c3)c2cc1OCCCN1CCOCC1` (stereo not drawn) were 8.83 µM and 8.74 µM.
`CC(C)(O)CC(=O)NCCn1ccc2ncnc(Nc3ccc(NC(=O)C(c4ccccc4)N4Cc5ccccc5C4=O)cc3)c21` (stereo not drawn): the half-inhibitory concentration (IC50) (in experiment [1]; in the experiment with A549; in experiment [2]; with NCI-H1975 [3]; in experiment [4]) was over 20 µM throughout.
`COc1cc2ncnc(NNC(=O)c3ccc(NC(=O)C(c4ccccc4)N4Cc5ccccc5C4=O)cc3)c2cc1OCCCN1CCOCC1` (stereo not drawn): the IC50 (in experiment [1]; with NCI-H1975 [3]) was over 20 µM each time.
As to `COc1cc2ncnc(NNC(=O)c3cccc(NC(=O)C(c4ccccc4)N4Cc5ccccc5C4=O)c3)c2cc1OCCCN1CCOCC1` (stereo not drawn), the IC50 (in experiment [1]; in the experiment on NCI-H1975 [3]) was over 20 µM each time.
Turning to `COc1cc2ncnc(Nc3ccc(NC(=O)C(c4ccccc4)N4Cc5ccccc5C4=O)cc3)c2cc1OCCCN1CCOCC1` (stereo not drawn), the IC50 was 5.47 µM in experiment [1]; over 20 µM in the experiment with A549; 8.13 µM in experiment [2]; 1.69 µM in the experiment on NCI-H1975 [3]; 1.45 µM in experiment [4]. For the same compound, the “Ratio IC50” value in the experiment with NCI-H1975 [5] was determined as 6.
Regarding `COc1cc2ncnc(NCc3ccc(NC(=O)C(c4ccccc4)N4Cc5ccccc5C4=O)cc3)c2cc1OCCCN1CCOCC1` (stereo not drawn), the IC50 in experiment [1] is 3.67 µM; in experiment [2], 3.46 µM; with NCI-H1975 [3], 11 µM.
As for `COc1cc2ncnc(NNc3ccc(NC(=O)C(c4ccccc4)N4Cc5ccccc5C4=O)cc3)c2cc1OCCCN1CCOCC1` (stereo not drawn), the IC50 was found to be 7.8 µM in experiment [1] and 5.13 µM in the experiment on NCI-H1975 [3].
Consider `COc1cc2ncnc(N(C)c3ccc(NC(=O)C(c4ccccc4)N4Cc5ccccc5C4=O)cc3)c2cc1OCCCN1CCOCC1` (stereo not drawn), for which the IC50 in experiment [1] stood at 8.45 µM; in the experiment with NCI-H1975 [3], 6.28 µM.
Taken in the same sequence, the figures for `COc1cc2ncnc(Nc3ccc(C(=O)NNC(=O)C(c4ccccc4)N4Cc5ccccc5C4=O)cc3)c2cc1OCCCN1CCOCC1` (stereo not drawn) were over 20 µM and over 20 µM.
The like results for `COc1cc2ncnc(Nc3cccc(NC(=O)C(c4ccccc4)N4Cc5ccccc5C4=O)c3)c2cc1OCCCN1CCOCC1` (stereo not drawn) were, in that order, 9.06 µM and 9.32 µM.
`C=CC(=O)Nc1cc(Nc2nccc(-c3cn(C)c4ccccc34)n2)c(OC)cc1N(C)CCN(C)C` [OSIMERTINIB]: in experiment [2], the IC50 was 0.75 µM.
